Experimental data taken from US9783551B2, “Pyranochromenyl phenol derivative, and pharmaceutical composition for treating metabolic syndrome or inflammatory disease” (GLACEUM, INC., priority 2013, dated 2017).
Each block holds one compound with its values, some of them ahead of it.

Experiments:
[1] = tested on: db/db mice; assay: Anti-diabetic effects for db/db mice (glycosylated hemoglobin); assay type: in vivo, C57BLKS/J-db/db mice
Protocol: 5-week-old male C57BLKS/J-db/db mice (Central Lab. Animal Inc.) were purchased and acclimatized for 2 weeks, and then used in this experiment. Samples were exactly taken from the compounds prepared in Examples 4 and 15 of the present invention (Compounds 5 and 16) according to the administration dose and put into Falcon tubes, a 0.5% methyl cellulose aqueous solution stored refrigerated was placed at room temperature to allow the excipients to be warmed at room temperature, 16 ml of each of the excipients was added to a 50 ml Falcon tube, and a vortex mixer was used to primarily mix the ingredients in a soft manner, and then a suspension was obtained and homogenized by treating the sample for 3 minutes using a homogenizer (30,000 rpm, CPT-1600E, Kinemtica, Switzerland), and then ultrasonically treated for 30 minutes. The sample thus prepared was administered through oral gavage using a disposable plastic syringe equipped with a sonde once daily for 42 days (6 weeks).
The glycosylated hemoglobin (HbA1c) was measured while the db/db mice were bred. The gyclosylated hemoglobin was measured at 2 days prior to group separation, 4 weeks after administration, and 6 weeks after administration, and was measured by fasting the mice for 4 hours on the measurement date, collecting blood from the caudal vein before each material was administered, and using a device for measuring glycosylated hemoglobin (SD A1cCare, SD Biosensor, Inc., Korea).

[2] = Chemical stability in 1% NaOH in MeOH (HPLC); assay type: physicochemical; settings: for stability in words: until 3 days (72 hours)
Protocol: The relative chemical stability of glabridin of Preparation Example 1, Example 3 (Compound 4), Example 4 (Compound 5) and Example 14 (Compound 15) were compared with each other. That is, 50 mg of each of glabridin, Compound 4, Compound 5, and Compound 15 was exactly weighed, dissolved in 50 ml of 1% HCl in MeOH and 10 ml of 1% NaOH in MeOH, and the concentrations of the compounds were examined by HPLC at each time level of 0, 8 hrs, 12 hrs, 24 hrs, 48 hrs, and 72 hrs. At this time, the concentrations of the compounds remaining in 1% HCl in MeOH and 1% NaOH in MeOH were determined using an internal standard (Compound 14 of Example 13). That is, 10 mg of Compound 14 was exactly weighed and dissolved in 100 ml of acetonitrile, 9 ml of this solution was mixed with 1 ml of the sample aliquoted at each time level, the mixture was analyzed by HPLC, and the concentrations of the compounds in the internal standard and in the above samples were determined by comparing the initial values.
The concentrations of the compounds remaining in 1% HCl in MeOH and 1% NaOH in MeOH at each time level are in the following Table 8 and FIG. 7 and the following Table 9 and FIG. 8, respectively.
The numerical values exceeding 100% in the following Tables 8 and 9 show those measured at a concentration is slightly higher than the initial measurement value, and this is due to the fact that an average value of the measured values was simply shown without considering a statistical error generated during the measurement. Since the measured value of about 95% or more is deemed to have practically no change in concentration, it may be seen that the compounds of the present invention are excellent in chemical stability.

[3] = tested on: DIO mice; assay: Anti-obesity effect for DIO mice (body weight); assay type: in vivo, C57BL/6 mice; settings: Mus musculus, 672 h; 4 weeks, 150 mg/kg, oral gavage once daily
Outline: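 Female C57BL/6 mice made obese by ≥10 weeks of high-fat diet; compounds suspended in 0.5% methyl cellulose and given by oral gavage once daily for 28 days. Body weight measured twice weekly; effect (%) = (control weight − treated weight)/control weight × 100.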

[4] = tested on: DIO mice; assay: Organ weights and blood biochemistry of DIO mice after 28 days of administration; assay type: in vivo, C57BL/6 mice; settings: 150 mg/kg
Protocol: Five-week-old female C57BL/6 mice (Narabio Co., Ltd.) were purchased and fed with only high-fat diet for at least 10 weeks to produce diet induced obesity ([…]) mice. Samples were exactly taken from Preparation Example 1 (glabridin) and the compounds of Examples of the present invention (Compounds 1 to 5, 7, 9, 11, 14 to 16, 21, and 23) according to the administration dose and put into Falcon tubes, 3 ml of a 0.5% methyl cellulose aqueous solution was added thereto and a vortex mixer was used to primarily mix the ingredients in a soft manner, and then a homogenizer (30,000 rpm, Ultra-Turrax® T10 Basic, IKA) was used to treat the sample for 3 minutes while 1.5 ml of a 0.5% methyl cellulose aqueous solution was added thereto. The sample thus prepared was administered through oral gavage using a disposable plastic syringe once daily for 28 days (4 weeks). The body weight was measured twice a week while the DIO mice were bred in this manner. Based on the data thus calculated, the anti-obesity effect (%) was calculated according to the equation defined as follows. Anti-Obesity Effect={(Body weight of control group)−(Body weight of experimental group)}/(Body weight of control group)×100
After the experiment was performed for 28 days (4 weeks) as described above, blood was simultaneously taken while the experimental animal was finally sacrificed, and each of the organs (liver, heart, kidney, pancreas, fat tissues and the like) was removed to measure the weight and observe peculiar matters.
In Table 3, { }, ( ) and the like were used in order to differentiate experiments which had been performed at different periods. Experiments without the parenthesis were those simultaneously performed under the same conditions.

[5] = tested on: C2C12 cells; assay: Glucose uptake (2-NBDG) in C2C12 cells; assay type: cell-based; settings: compared with Rosiglytazone and Metformin
Protocol: In terms of capacity of glucose uptake in C2C12 cells, the compound (Compound 15) of Example 14 of the present invention was compared with the existing Rosiglytazone and Metformin which were used or are currently used as a therapeutic agent for diabetes. The C2C12 cell was cultured in a Dulbecco's modified eagle medium (DMEM) supplemented with 10% fetal bovine serum (FBS), penicillin (120 unit/mL), and streptomycin (75 μg/mL), the medium used for differentiation was a DMEM medium supplemented with 1% horse serum, and the C2C12 cell was cultured in the DMEM medium for 4 days. The cell thus cultured was treated with Compound 15 in a low-glucose, serum-free medium supplemented with 2-[N-(7-nitrobenz-2-oxa-1,3-diazol-4-yl)amino]-2-deoxy-d-glucose (2-NBDG) for 24 hours to measure the glucose absorbance at an excitation wavelength of 485 nm and an emission wavelength of 535 nm using a fluorescent detector. The same experiment was performed on Rosiglytazone and Metformin.

concentration of compound remaining [2]; 0: 100% | concentration of compound remaining ([2]; 8 h): 101% | concentration of compound remaining ([2]; 24 h): 102% | concentration of compound remaining ([2]; 48 h): 100% | concentration of compound remaining ([2]; 72 h): 102% | stability in words [2]: very stable
SMILES: CCCc1ccc(C2COc3c(ccc4c3CCC(C)(C)O4)C2)c(O)c1 (centres unmarked) [Compound 5, 3-(2-hydroxy-4-propylphenyl)-8,8-dimethyl-2,3,4,8,9,10-hexahydropyrano [2,3-f] chromene]
HbA1c (%) 4 weeks ([1]; 4 weeks after administration, 300 mg/kg oral once daily): 5.3% | HbA1c (%) 6 weeks ([1]; 6 weeks after administration, 300 mg/kg oral once daily): 5.7% | HbA1c (%) Before administration ([1]; before administration, 300 mg/kg group): 4.7% | inhibition in vivo at 150 mg/kg [3]: 19% | ALT (U/L) ([4]; ( ) experiment): (50) U/L | AST (U/L) ([4]; ( ) experiment): (131) U/L | BMI ([4]; ( ) experiment): (3.0) | FFA (μEq/L) ([4]; ( ) experiment): (2310) μEq/L | Fat (g), weight of fat removed around the epididymis and the kidney ([4]; ( ) experiment): (1.04) g | LDL (mg/dL) ([4]; ( ) experiment): (12) mg/dL | Liver (g), weight of liver ([4]; ( ) experiment): (1.15) g

concentration of compound remaining [2]; 0: 100% | concentration of compound remaining ([2]; 8 h): 100% | concentration of compound remaining ([2]; 24 h): 100% | concentration of compound remaining ([2]; 48 h): 98% | concentration of compound remaining ([2]; 72 h): 100% | stability in words [2]: very stable
SMILES: CCOc1ccc(C2COc3c(ccc4c3CCC(C)(C)O4)C2)c(O)c1 (centres unmarked) [Compound 15, 3-(2-hydroxy-4-ethoxyphenyl)-8,8-dimethyl-2,3,4,8,9,10-hexahydropyrano [2,3-f] chromene]
capacity of promoting glucose uptake, in words [5]: better than that of the existing therapeutic agent for diabetes | inhibition in vivo at 150 mg/kg [3]: 14% | ALT (U/L) ([4]; experiment without parenthesis): 52 U/L | AST (U/L) ([4]; experiment without parenthesis): 143 U/L | BMI ([4]; experiment without parenthesis): 3.6 | FFA (μEq/L) ([4]; experiment without parenthesis): 1760 μEq/L | Fat (g), weight of fat removed around the epididymis and the kidney ([4]; experiment without parenthesis): 2.02 g | LDL ([4]; experiment without parenthesis): 10 mg/dL | Liver (g), weight of liver ([4]; experiment without parenthesis): 1.28 g
